Where two headings read alike, the source gives them in different places. Marks after values point to notes of the source that are not given here.
How the values were obtained:
[1] = test system: tail bleeding in wild-type C57B16 mice; assay: Tail bleeding assay, traditional bleeding model; type: in vivo; details: intraperitoneal 4 mg/mouse, 160 mg/Kg, tail tip removed 30 min after injection, n = 10
Description: (§1) Bleeding time was evaluated in 2 months old wild-type C57B16 (n=10) mice by removing the tail tip. Mice (20-25 g) were anaesthetized with 2.5% isoflurane and maintained at 37° C. on heating pads. The hemostatic efficacy was evaluated in 2 models, traditional bleeding model and hyperfibrinolytic bleeding model.
Traditional bleeding model consisted in intraperitoneal injection of different compounds (4 mg/mouse, 160 mg/Kg) dissolved in 2% carboxymethyl cellulose or vehicle. Thirty minutes after injection, 5 mm of tail tip were removed using a scalpel blade and the tail tip bathed in 1 mL of sterile saline at 37° C. The time to cessation of bleeding was measured up to 30 min. The time of bleeding was defined as the interval between initial transection and the visual cessation of bleeding.

[2] = test system: human blood (whole blood clot lysis, tPA); assay: Thromboelastometry (ROTEM, modified in-tem with tPA): whole blood clot formation and lysis, human blood; details: read-out: EC50LT (effective concentration to delay lysis time by 50%)
Description: A modification of in-tem test as described below was used for the examination of antifibrinolytic effects of tested compounds and its interaction with platelets in citrated blood.
In a pre-warmed cuvette and holder 1 μL of Tissue plasminogen activator (tPA) (150,000 U/mL, Actylise), 20 μL of start-tem reagent (CaCl2), 20 μL of in-tem reagent (activators of coagulation system), 3 μL of DMSO (control) or tested compounds (CMs) in DMSO and 300 μL of citrated blood pre-warmed were pipetted. The cup holder containing the sample mixture was placed immediately on the appropriate channel. The measurement was recorded for 60 min to allow clot formation and lysis.

[3] = test system: tPA-prolonged tail bleeding in wild type mice (C57/Bl6); assay: Tail bleeding assay, hyperfibrinolytic bleeding model (tPA 0.5 mg/kg); type: in vivo; details: n≧10
Description: as §1
Hyperfibrinolytic bleeding model, consisted in injection of 0.5 mg/kg tPA into the ocular plexus to prolong bleeding time due to excessive fibrinolysis. […] The catheter was connected to a syringe pump (AL-1000, WPI) for the infusion of 200 μL (10% bolus, 90% perfusion during 40 minutes) of tested agents. Then, tPA (0.5 mg/kg) was injected into the ocular plexus and five minutes after tPA administration, saline or the different compounds was infused through the femoral catheter to ensure systemic distribution of all the agents. Reference compounds, TXA and Aprotinin, were administered at 300 and 10 mg/Kg respectively; however, all compounds of the invention were administered at 1 mg/Kg. Five minutes later, 5 mm of tail tip were removed using a scalpel blade and the tail tip bathed in 1 mL of sterile saline at 37° C.
The time of bleeding was defined as the interval between initial transections and the visual cessation of bleeding, that was measured up to 30 minutes. A value of 30 min was assigned to those animals bleeding longer than the observation period. […] Bleeding time was determined in wild type mice (C57/Bl6), where n≧10 per assayed compound; therefore, BT is reported as a mean value—in the case of saline, BT is reported as mean±ESM.

[4] = test system: mice blood (whole blood clot lysis, tPA); assay: Thromboelastometry (ROTEM, modified in-tem with tPA): whole blood clot formation and lysis, mice blood; type: cell-based; details: Mus musculus, read-out: EC50LT (effective concentration to delay lysis time by 50%), assayed concentrations 1000-0.2 μM
[5] = 1 mg/Kg infused via femoral vein
[6] = human blood, tPA, assayed concentrations 1000-0.2 μM

| Molecule | EC50 ([2]; Homo sapiens) | further results |
| --- | --- | --- |
| COc1ccc(Oc2ccc(S(=O)(=O)C3(C(=O)NO)CCC4(CCCNC4)CC3)cc2)cc1 (centres unmarked) [Example 1-01] | < 1 µM | Bleeding time [1]: 31.0 ± 3.6 s |
| COc1ccc(Oc2ccc(S(=O)(=O)C3(C(=O)NO)CCC4(CCCN(C)C4)CC3)cc2)cc1 (centres unmarked) [Example 1-02] | 10 to 25 µM | Bleeding time [1]: 39.2 ± 4.7 s |
| O=C(O)c1ccc(Oc2ccc(S(=O)(=O)C3(C(=O)NO)CCC4(CCNCC4)C3)cc2)cc1 (centres unmarked) [Example 1-07] | < 1 µM | BT (bleeding time, mean) [3, 5]: ++* (10 minutes≦BT<20 minutes (++)); EC50 [4]: < 0.001 µM |
| CNC(=O)c1ccc(Oc2ccc(S(=O)(=O)C3(C(=O)NO)CCC4(CCNCC4)C3)cc2)cc1 (centres unmarked) [Example 1-08] | < 1 µM | BT (bleeding time, mean) [3, 5]: ++++**†† (BT<5 minutes (++++)); EC50 [4]: 0.001 to 1 µM |
| O=C(NO)C1(S(=O)(=O)c2ccc(NC3CCCCC3)cc2)CCC2(CCNCC2)C1 (centres unmarked) [Example 1-14] | < 1 µM | BT (bleeding time, mean) [3, 5]: ++++**†† (BT<5 minutes (++++)); EC50 [4]: 0.001 to 1 µM |
| O=C(NO)C1(S(=O)(=O)c2ccc(Oc3ccc(OC(F)(F)F)cc3)cc2)CCC2(CCNCC2)C1 (centres unmarked) [Example 1-73] | < 1 µM | BT (bleeding time, mean) [3, 5]: ++++**†† (BT<5 minutes (++++)); EC50 [4]: 1 to 10 µM |
| O=C(NO)C1(S(=O)(=O)c2ccccc2NC2CCCCC2)CCC2(CCNCC2)C1 (centres unmarked) [Example 1-79] | < 1 µM | BT (bleeding time, mean) [3, 5]: ++** (10 minutes≦BT<20 minutes (++)) |
| O=C(NO)C1(S(=O)(=O)c2ccc(NC3CCCCC3)c(Cl)c2)CCC2(CCNCC2)C1 (centres unmarked) [Example 1-80] | < 1 µM | BT (bleeding time, mean) [3, 5]: +++**† (5 minutes≦BT<10 minutes (+++)) |
| O=C(NO)C1(S(=O)(=O)c2ccc(NCC3CCCCC3)cc2)CCC2(CCNCC2)C1 (centres unmarked) [Example 1-82] | < 1 µM | BT (bleeding time, mean) [3, 5]: +++** (5 minutes≦BT<10 minutes (+++)) |
| O=C(NO)C1(S(=O)(=O)c2ccc(NC3CCOCC3)cc2)CCC2(CCNCC2)C1 (centres unmarked) [Example 1-96] | < 1 µM | BT (bleeding time, mean) [3, 5]: +++** (5 minutes≦BT<10 minutes (+++)) |
| O=C(NO)C1(S(=O)(=O)c2ccc(NC3CCCC3)cc2)CCC2(CCNCC2)C1 (centres unmarked) [Example 1-97] | 1 to 10 µM | – |
| O=C(Oc1ccc(S(=O)(=O)C2(C(=O)NO)CCC3(CCNCC3)C2)cc1)C1CCCCC1 (centres unmarked) [Example 1-98] | > 25 µM | – |
| O=C(NO)C1(S(=O)(=O)c2ccc(OCc3ccncc3)cc2)CCC2(CCNCC2)C1 (centres unmarked) [Example 1-100] | < 1 µM | – |
| CNC(=O)c1ccc(C(=O)Oc2ccc(S(=O)(=O)C3(C(=O)NO)CCC4(CCNCC4)C3)cc2)cc1F (centres unmarked) [Example 1-101] | 1 to 10 µM | – |
| O=C(Oc1ccc(S(=O)(=O)C2(C(=O)NO)CCC3(CCNCC3)C2)cc1)c1ccc(OC(F)(F)F)cc1 (centres unmarked) [Example 1-102] | > 25 µM | BT (bleeding time, mean) [3, 5]: ++* (10 minutes≦BT<20 minutes (++)) |
| CNC(=O)c1ccc(CNc2ccc(S(=O)(=O)C3(C(=O)NO)CCC4(CCNCC4)C3)cc2)cc1 (centres unmarked) [Example 1-104] | < 1 µM | – |
| COC(=O)c1ccc(CNc2ccc(S(=O)(=O)C3(C(=O)NO)CCC4(CCNCC4)C3)cc2)cc1 (centres unmarked) [Example 1-105] | > 25 µM | – |
| O=C(O)c1ccc(CNc2ccc(S(=O)(=O)C3(C(=O)NO)CCC4(CCNCC4)C3)cc2)cc1 (centres unmarked) [Example 1-106] | < 1 µM | – |
| COc1ccc(S(=O)(=O)C2(C(=O)NO)CCC3(CCNCC3)C2)cc1Cl (centres unmarked) [Example 1-107] | < 1 µM | BT (bleeding time, mean) [3, 5]: +++** (5 minutes≦BT<10 minutes (+++)) |
| O=C(NO)C1(S(=O)(=O)c2ccc(OCc3cn[nH]c3)cc2)CCC2(CCNCC2)C1 (centres unmarked) [Example 1-112] | < 1 µM | BT (bleeding time, mean) [3, 5]: +++** (5 minutes≦BT<10 minutes (+++)) |
| O=C(NO)C1(S(=O)(=O)c2ccc(Oc3ccc(OC(F)(F)F)c(Cl)c3)cc2)CCC2(CCNCC2)C1 (centres unmarked) [Example 1-114] | 10 to 25 µM | – |
| O=C(NO)C1(S(=O)(=O)c2ccc(Oc3cccc(OC(F)(F)F)c3)cc2)CCC2(CCNCC2)C1 (centres unmarked) [Example 1-115] | < 1 µM | – |

| Molecule | EC50 ([2]; Homo sapiens) | further results |
| --- | --- | --- |
| O=C(NO)C1(S(=O)(=O)c2ccc(F)c(Cl)c2)CCC2(CCNCC2)C1 (centres unmarked) [Example 1-116, N-hydroxy-3-(3-chloro-4-fluorophenylsulfonyl)-8-azaspiro[4.5]decane-3-carboxamide] | < 1 µM | – |
| O=C(NO)C1(S(=O)(=O)c2ccc(Oc3ccc(OC(F)(F)F)c(F)c3)cc2)CCC2(CCNCC2)C1 (centres unmarked) [Example 1-118] | < 1 µM | – |
| COc1ccc(C(=O)Oc2cccc(S(=O)(=O)C3(C(=O)NO)CCC4(CCNCC4)C3)c2)cc1 (centres unmarked) [Example 1-119] | < 1 µM | – |
| O=C(Oc1cccc(S(=O)(=O)C2(C(=O)NO)CCC3(CCNCC3)C2)c1)c1ccc(OC(F)(F)F)cc1 (centres unmarked) [Example 1-120] | > 25 µM | – |
| O=C(NO)C1(S(=O)(=O)c2ccc(O)c(Cl)c2)CCC2(CCNCC2)C1 (centres unmarked) [Example 1-121] | 1 to 10 µM | – |
| O=C(NO)C1(S(=O)(=O)c2ccc(OCc3ccccc3)c(Cl)c2)CCC2(CCNCC2)C1 (centres unmarked) [Example 1-122] | > 25 µM | – |
| O=C(NO)C1(S(=O)(=O)c2cccc(Oc3ccc(OC(F)(F)F)cc3)c2)CCC2(CCNCC2)C1 (centres unmarked) [Example 1-123] | < 1 µM | – |
| O=C(NO)C1(S(=O)(=O)c2ccc(Oc3ccc(OC(F)(F)F)cc3)cc2)CCC2(CCN(C3CC3)CC2)C1 (centres unmarked) [Example 1-124] | 1 to 10 µM | – |
| O=C(NO)C1(S(=O)(=O)c2ccc(NCC3CCC(F)(F)CC3)cc2)CCC2(CCNCC2)C1 (centres unmarked) [Example 1-125] | < 1 µM | – |
| CNC(=O)c1ccc(Oc2cccc(S(=O)(=O)C3(C(=O)NO)CCC4(CCNCC4)C3)c2)cc1 (centres unmarked) [Example 1-126] | > 25 µM | – |
| O=C(O)c1ccc(Oc2cccc(S(=O)(=O)C3(C(=O)NO)CCC4(CCNCC4)C3)c2)cc1 (centres unmarked) [Example 1-127] | < 1 µM | – |
| O=C(Oc1ccc(S(=O)(=O)C2(C(=O)NO)CCC3(CCNCC3)C2)cc1Cl)c1ccc(OC(F)(F)F)cc1 (centres unmarked) [Example 1-128, N-hydroxy-3-(3-chloro-4-(4-(trifluoromethoxy)Benzoyloxy)Phenylsulfonyl)-8-azaspiro[4.5]decane-3-carboxamide] | > 25 µM | – |
| COc1ccc(C(=O)Oc2ccc(S(=O)(=O)C3(C(=O)NO)CCC4(CCNCC4)C3)cc2Cl)cc1 (centres unmarked) [Example 1-129] | 1 to 10 µM | – |
| O=C(NO)C1(S(=O)(=O)c2cccc(OCc3ccc(OC(F)(F)F)cc3)c2)CCC2(CCNCC2)C1 (centres unmarked) [Example 1-130] | 1 to 10 µM | – |
| COc1ccc(S(=O)(=O)[C@]2(C(=O)NO)CCC3(CCNCC3)C2)cc1Cl [Example 1-131] | < 1 µM | – |
| COc1ccc(S(=O)(=O)[C@@]2(C(=O)NO)CCC3(CCNCC3)C2)cc1Cl [Example 1-132] | < 1 µM | – |
| CNC(=O)c1ccc(Oc2ccc(S(=O)(=O)C3(C(=O)NO)CCC4(CCNCC4)C3)cc2)cc1 (centres unmarked) [Example 1-133] | – | EC50 [2, 6]: < 1 µM |
| CNC(=O)c1ccc(Oc2ccc(S(=O)(=O)C3(C(=O)NO)CCC4(CCNCC4)C3)cc2)cc1 (centres unmarked) [Example 1-134] | – | EC50 [2, 6]: < 1 µM |
| O=C(NO)C1(S(=O)(=O)c2ccccc2NC2CCCCC2)CCC2(CCNCC2)C1 (centres unmarked) [Example 1-138] | – | EC50 [2, 6]: < 1 µM |
| NC[C@H]1CC[C@H](C(=O)O)CC1 [TXA, tranexamic acid, reference compound] | 1 to 10 µM | BT (bleeding time, mean) ([3]; 300 mg/Kg infused via femoral vein): ++** (10 minutes≦BT<20 minutes (++)); EC50 [4]: 0.001 to 1 µM |
| Aprotinin [reference compound] | – | BT (bleeding time, mean) ([3]; 10 mg/Kg infused via femoral vein): ++** (10 minutes≦BT<20 minutes (++)) |
